Earlier results on one compound are cited in patent US20180177735A1, “Stable Pharmaceutical Composition Of Phytonadione And A Novel Process For Preparation Thereof” (Amneal Pharmaceuticals Company GmbH, priority 2016, published 2018).

Where two headings read alike, the source gives them in different places.

Regarding `CC1=C(C/C=C(\C)CCC[C@H](C)CCC[C@H](C)CCCC(C)C)C(=O)c2ccccc2C1=O` [Phytonadione], the solubility entry (in chloroform) is listed as “soluble”, the solubility entry (in ethanol) was “slightly soluble (1 g of material requires 100 to 1000 ml of solute to dissolve)” and the solubility result (in water) is on record as “insoluble”.
